From patent US9249159B2, “Composition for treating hepatitis C virus, regulating phosphorylation of replicase” (Industry-Academic Cooperation Foundation, Yonsei University, priority 2011, dated 2016) come the findings set out here.

Assay [1] deals with HCV NS5B. Briefly: NS5B phosphorylation in Huh7TR-NS cell (anti-p-Ser immunoprecipitation, anti-NS5B immunoblot). It counts as cell-based, hepatitis C virus. The conditions noted are these: 17-DMAG 50 nM or HA1077 20 μM, 48 hours. On the procedure: The human hepatoma stable cell lines Huh7TR-4 and Huh7TR-NS [17], which express the tetracycline repressor and the HCV NS proteins (NS3-NS5) in a tetracycline-inducible manner, respectively, were maintained in the presence of blasticidin S (10 μg/mlL and Zeocine (100 μg/mL). NS protein expression in Huh7TR-NS was induced by addition of 1 μg/mL tetracycline for 24 h. The Huh7 cell-derived cell line R-1, supporting stable, autonomous replication of genotype 1b HCV subgenomic replicon RNA, was described previously. 17-DMAG, the PRK2 inhibitor, HA1077, and the inhibitor of phosphatidylinositol 3-kinase (PI3K), LY294002, were obtained from Sigma-Aldrich (St. Louis, Mo., USA) and Calbiochem Inc. (La Jolla, Calif., USA), and Biomol (Plymouth Meeting, Pa., USA), respectively. IFN-α was purchased from Sigma-Aldrich (1-4276).
For co-immunoprecipitation experiment, the cells were resuspended in lysis buffer A (100 mM Tris-HCl, pH 8.0, 150 mM NaCl, 1% Triton X-100, 10 mM NaF, 1 mM Na3VO4, 17.5 mM β-glycerophosphate) supplemented with an EDTA-free protease inhibitor cocktail (Roche Applied Science, Indianapolis, Ind., USA) and incubated on ice for 30 min. […]
Then, treatment with 17-DMAG (50 nM) or HA1077 (20 μM), a PRK2 inhibitor, was carried out for 48 hours. […] A case without treatment with an inhibitor was expressed as (−).
A general note: Immunoblotting shows a protein as a band on a membrane.

Assay [2] has as its system genotype 1b HCV subgenomic replicon (R-1 cell line). Briefly: HCV replication (HCV RNA by real-time RT-PCR, NS5B protein by Western blot) in R-1 subgenomic replicon cells. It counts as cell-based, hepatitis C virus genotype 1b. Conditions: for decrease of HCV RNA titers with respect to DMSO control: R-1 cell line, 20 μM, 48 hours. The text has this: In order to check a PRK2 phosphorylation inhibition effect of the novel inhibitors obtained in Example 1, R-1 cell line harboring HCV subgenomic replicons was used.
The R-1 cell line was comprised of cis-acting RNA elements of 5′ and 3′-end untranslated regions (UTR) essential for replication of HCV RNA, a selection marker inserted to select a replicated RNA into a portion from which a structural protein coding site was removed, and a non-structural protein (NS3-NS5B)-coding gene required for replication. In the replicon, the selection marker was expressed by the HCV 5′-UTR and internal ribosome entry site (IRES) as a part of a coding gene of a core protein as a structural protein and capsid protein, and HCV non-structural proteins were expressed by IRES of EMCV. In order to obtain replicon cells, a HCV subgenomic replicon RNA was obtained by means of in vitro transcription by using a T7 RNA polymerase, free ribonucleotide was removed by using a spin column, and introduced into a hepatocellular carcinoma cell line by electroporation. In the presence of G418, a stable cell line, i.e. a cell line showing a resistance to G418 through replication of HCV subgenome, was obtained. Expression of the HCV non-structural proteins in this cell line was analyzed by Western blot to confirm that replication was being carried out, and the R-1 cell line was constructed. It was observed that an HCV RNA copy number was about 10^7 copies/mL by a quantitative real-time PCR analysis using a TaqMan probe. The R-1 cell line was a cell line in which HCV RNA replication was being carried out, and thus it could be used to evaluate an HCV replication inhibition effect of a PRK2 activity inhibitor.
Then, after the R-1 cell line was treated with each of 5 screened PRK2 inhibitors, HA1077 currently and clinically used as a PRK2 activity inhibitor, and Y27632 having a PRK2 activity inhibition effect at a final concentration of 20 μM for 48 hours, levels of HCV NS5B protein and HCV RNA in cell lysates (50 μg) were analyzed by Western blot and real-time RT-PCR.
(§1) To do so, after the two cell lines were treated with the compound #17 at higher concentrations (60 and 100 μM) than 20 μM for 48 hours, an HCV RNA genome level was checked by a real-time RT-PCR analysis. A value was a mean±standard deviation (SD) of three independent measurements. HCV RNA titer was quantified by real-time PCR analysis. Three independent experiments were performed in triplicate.
5 derivatives (#18 to #22: refer to FIG. 2) were produced based on the inhibitor #17 showing the best effect. After the R-1 cell line was treated with each of these inhibitors or HA1077 and Y27632 at a final concentration of 20 μM for 48 hours, an HCV RNA genome level was checked by a real-time RT-PCR analysis and expressed in % with respect to a control treated with DSMO. Three independent experiments were conducted repeatedly three times. Data were expressed by mean±SD of the three experiments.
Total RNA was extracted from R-1 or HCV (JFH1)-infected cells using TRIzol LS reagent (Invitrogen, Carlsbad, Calif., USA) and purified according to the manufacturer's instructions. HCV RNA levels were quantified by RT-PCR using a primer pair and TaqMan probe targeting a region within the HCV 5′-UTR as described previously. Cellular glyceraldehyde-3-phosphate dehydrogenase was used as an internal control. Assays were performed using the DyNAmo Probe 2-step qRT-PCR Kit (Finnzymes, Espoo, Finland) and a CHROMO4 continuous fluorescence detector (Bio-Rad, Hercules, Calif., USA), according to the manufacturer's instructions.
(§2) Therefore, anti-HCV activity of 17-DMAG in the R-1 cell was tested at a level lower than 50 nM. To do so, the R-1 cell was treated with a vehicle (0.25% DMSO) or 17-DMAG for 72 hours and the cell lysates (50 μg) and antibodies specific to the proteins were immunoblotted to measure levels of the proteins. An anti-α-tubulin antibody (lower end panel) was used as an internal loading control. […]
A general note: In qPCR the cycle at which signal appears reflects the starting amount.

The target in assay [3] is recombinant active PRK2 (Homo sapiens, UniProt Q16513). The assay is described as follows: In vitro kinase assay: recombinant PRK2 phosphorylating HCV NS5B. It counts as biochemical. The conditions noted are these: gamma-32P ATP and 100 μM ATP, autoradiography. Here is the method: Then, in order to test an HCV NS5B protein phosphorylation inhibition effect of the screened novel PRK2 inhibitor, in vitro kinase assay was carried out.
Using a recombinant active PRK2 and purified HCV NS5B protein as substrates, the screened inhibitors #11 and #17 were treated in the presence of gamma-^32P ATP and 100 μM ATP. The reaction mixture was separated by SDS-PAGE (8% gel), and a result thereof was checked by autoradiography.
Finally, PRK2 and HCV NS5B phosphorylation inhibition effects of the compounds #18, #19, #20, #21 and #22 as the derivatives of the compound #17 were analyzed through in vitro kinase assay.
A 1 μM recombinant PRK2 and 10 μM HCV NS5B were phosphorylated for 30 minutes in the presence of 10 μCi γ-^32P ATP and 100 μM ATP. The reaction mixture was separated by SDS-PAGE (8% gel), and a result thereof was checked by autoradiography.

Assay [4] deals with PDK1. Briefly: PDK1 level and activation in R-1 cell by immunoblotting. It counts as cell-based. The conditions noted are these: 100 IU/ml, hourly for 6 hours.
From the text: Total cell lysates from cells treated with inhibitors or IFN-α by using antibodies to PDK1, p-PDK1 (S241), PRK2, and p-PRK2 (T816) (products of Cell Signaling Technology, Inc., Beverly, Mass., USA) was used for immunoblotting. In order to detect PKC isoforms α, β, and γ, a polyclonal antibody to a consensus sequence present in three PKC (protein kinase C) isoforms α, β and γ (anti-pan-PKC; Zymed Laboratories, San Francisco, Calif., USA) was used. An anti-α-tubulin antibody (Oncogene Research Products, Cambridge, Mass., USA) was carried out in immunoblotting for checking whether or not the same amount of protein was loaded.
as §2, with “control. The levels of the proteins were measured by densitometric analysis of immunoblot, and the phosphorylated amounts and relative intensities calculated with respect to PDK1 and PDK2 were converted with respect to α-tubulin signals and then quantitated. As a result of three independent experiments showing similar results, a representative blot picture was illustrated.” for “control.”

For assay [5], the system named is PRK2. The assay is described as follows: PRK2 level in Huh7 cell by immunoblotting. It counts as cell-based. Conditions: 100 IU/ml IFN-α.
Assay [6] has as its target T1, PRK2 (Homo sapiens, UniProt Q16513).
T1 construct: endogenous in cells; host or cells: R-1 (Huh7-derived HCV replicon cells) and Huh7
Briefly: PRK2 phosphorylation (Thr816) and PRK2 level in R-1 cells by Western blot. In kind it is cell-based. Conditions: R-1 cell, 100 IU/ml, hourly for 6 hours.
Experimental: After the R-1 cell line was treated with the PRK2 inhibitor at a final concentration of 10 or 20 μM for 48 hours, phosphorylation or not of Thr^816 residue essential for activity of PRK2 was analyzed by Western blot using a phospho-PRK2 antibody to measure an expression level of phosphorylated PRK2. Immunoblotting using an anti-α-tubulin antibody was carried out to check whether or not the same amount of protein was loaded.
Then, in order to check whether or not IFN-α affected a PDK1-PRK2 signaling pathway, the R-1 cell was treated with 100 IU/ml of IFN-α hourly for 6 hours. SDS-PAGE was carried out to the cell lysates, and immunoblotting was carried out. The immunoblotting with anti-α-tubulin antibody was used as an internal control for loading. A representative result from one of the three independent experiments showing a similar result was illustrated.

In assay [7] the test system is genotype 2a HCV (JFH1)-infected Huh7 cells. Briefly: HCV RNA level in Huh7 cells infected with HCV (JFH1). It counts as cell-based, hepatitis C virus genotype 2a. The conditions noted are these: JFH1-infected Huh7 cell, 100 IU/mL alone, 72 hours. Here is the method:
as §1
Full-length, infectious HCV RNA of the genotype 2a HCV clone JFH1 was prepared by in vitro transcription using the MEGAscript T7 kit (Ambion, Austin, Tex., USA) and electroporated into Huh7 cells as described previously. Briefly, at 72 h post electroporation, culture medium was collected, cleared by low-speed centrifugation, and passed through a 0.45-μm filter (Millipore, Billerica, Mass., USA) before being used for infection of Huh7 cells. Cells were infected with HCV at a multiplicity of infection of 0.3 by adsorption for 3 h with periodic rocking, then washed three times with phosphate-buffered saline (PBS) and maintained in complete DMEM. […]
Total RNA was extracted from R-1 or HCV (JFH1)-infected cells using TRIzol LS reagent (Invitrogen, Carlsbad, Calif., USA) and purified according to the manufacturer's instructions. HCV RNA levels were quantified by RT-PCR using a primer pair and TaqMan probe targeting a region within the HCV 5′-UTR as described previously. […] Assays were performed using the DyNAmo Probe 2-step qRT-PCR Kit (Finnzymes, Espoo, Finland) and a CHROMO4 continuous fluorescence detector (Bio-Rad, Hercules, Calif., USA), according to the manufacturer's instructions.
In order to analyze whether or not 17-DMAG can inhibit replication in a cell infected with HCV, an experiment was carried out with the genotype 2a HCV infectious clone JFH1, which produces infectious virions in Huh7 or Huh7-derived cell lines. […] After 72 hours, total cellular RNA was extracted and HCV remaining in the infected cell was analyzed by quantitative RT-PCR.

Sequence of recombinant active PRK2 (Q16513 whole entry): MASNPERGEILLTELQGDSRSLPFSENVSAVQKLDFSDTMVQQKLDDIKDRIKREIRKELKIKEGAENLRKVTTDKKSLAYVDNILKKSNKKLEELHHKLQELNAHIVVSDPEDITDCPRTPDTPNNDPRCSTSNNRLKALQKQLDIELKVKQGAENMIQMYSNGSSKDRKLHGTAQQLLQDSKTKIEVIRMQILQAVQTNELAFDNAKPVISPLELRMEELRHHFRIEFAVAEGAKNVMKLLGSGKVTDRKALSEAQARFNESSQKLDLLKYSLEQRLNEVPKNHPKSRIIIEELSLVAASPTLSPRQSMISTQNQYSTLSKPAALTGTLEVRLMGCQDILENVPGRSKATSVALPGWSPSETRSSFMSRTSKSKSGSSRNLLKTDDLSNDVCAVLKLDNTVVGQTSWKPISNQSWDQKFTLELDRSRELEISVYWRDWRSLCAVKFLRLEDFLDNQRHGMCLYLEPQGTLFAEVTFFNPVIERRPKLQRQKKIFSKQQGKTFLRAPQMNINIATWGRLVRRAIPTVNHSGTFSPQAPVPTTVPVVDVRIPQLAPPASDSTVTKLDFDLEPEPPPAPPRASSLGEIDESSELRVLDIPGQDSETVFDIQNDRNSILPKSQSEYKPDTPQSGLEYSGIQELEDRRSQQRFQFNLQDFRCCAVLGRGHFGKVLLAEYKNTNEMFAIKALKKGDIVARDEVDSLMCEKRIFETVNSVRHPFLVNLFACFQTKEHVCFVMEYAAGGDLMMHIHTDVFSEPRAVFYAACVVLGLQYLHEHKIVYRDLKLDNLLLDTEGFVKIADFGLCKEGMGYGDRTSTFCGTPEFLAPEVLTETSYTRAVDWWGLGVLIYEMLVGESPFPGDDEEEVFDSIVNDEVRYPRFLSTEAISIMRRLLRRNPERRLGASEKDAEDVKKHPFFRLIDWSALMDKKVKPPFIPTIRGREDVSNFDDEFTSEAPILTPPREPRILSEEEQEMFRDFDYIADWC
T1 sequence (Q16513 whole entry): as above

For `O=S(=O)(c1cccc2cnccc12)N1CCCNCC1` [HA1077], the NS5B phosphorylation result in assay [1] is on record as “also inhibited NS5B phosphorylation”. In addition, the “decrease of HCV RNA titers with respect to DMSO control” value (“decrease of HCV RNA titers” for short) in assay [2] was 40%. Also, the “anti-HCV activity in combined treatment with IFN-α” value in assay [2] (R-1 cell, HA1077 20 μM combined with IFN-α 100 IU/ml) is given as “anti-HCV activity of IFN-α was improved”.

As for `O=C(Nc1ccc2[nH]cnc2c1)C1CCCCC1` [compound #11, cyclohexanecarboxylic acid (1H-benzoimidazole-5-yl)-amide], the “inhibition of in vitro phosphorylation of HCV NS5B protein” value in assay [3] is on record as “inhibit phosphorylation of HCV NS5B protein”.

Turning to `C[C@@H](N)[C@H]1CC[C@H](C(=O)Nc2ccncc2)CC1` [Y27632], the “decrease of HCV RNA titers” value in assay [2] was found to be 49%.

As to IFN-α, the “activation of PDK1” value in assay [4] was “any change in activation of PDK1 in the treated cell was not observed”. Also, the “PDK1 and PRK2 contents and activation” value in assay [5] is “A similar result was observed”. Moreover, the “decrease of content of HCV RNA” value in assay [2] (R-1 cell, 100 IU/ml alone, 72 hours) is “approximately 80%”. In addition, in assay [6], the “p-PRK2 content or PRK2 content” value is on record as “any significant change in p-PRK2 content or PRK2 content was not observed”. The “inhibition of virus RNA replication” value in assay [7] was “about 90%”.

Regarding `O=C(Nc1ccncc1)c1ccc[nH]c1=O` [compound 20, 2-oxo-N-(4-pyridinyl)-1,2-dihydro-3-pyridinecarboxamide], in assay [2], the “decrease of HCV RNA titers” value was “approximately 60%”.
